Values quoted from earlier work as cited in patent US20030194514A1 (priority 2002, published 2003).

How the values were obtained:
[1] = diluent level of 15%; cited from earlier work
[2] = per Brit. 1,132,417; cited from earlier work
[3] = especially at a dilution level of 20-30%; cited from earlier work

| Molecule | Judgement as stabilizer for propargyl bromide by impact tests [1] | Effectiveness of the solvent in stabilizing propargyl bromide [2] | Judgement as stabilizer in confinement tests [3] |
| --- | --- | --- | --- |
| c1ccccc1 [benzene] | poor stabilizers | – | – |
| ClC(Cl)Cl [chloroform] | poor stabilizers | ineffective | – |
| CCCCCC [hexane] | poor stabilizers | ineffective | – |
| CCO [ethanol] | – | effective | – |
| NC=O [formamide] | poor stabilizers | ineffective | – |
| CCOCC [diethyl ether] | appeared promising | – | – |
| Cc1ccccc1 [toluene] | – | – | material of choice |
| C1COCCO1 [dioxane] | – | effective | – |
| CC(C)OC(C)C [diisopropyl ether] | appeared promising | – | – |
| C1CCOC1 [tetrahydrofuran] | – | effective | – |
| xylene | – | effective | – |
